Data set [1] relates to BMDCs. Briefly: [Ca2+]int measurement (Fluo-3 AM). The following applies: 5 or 10 μg/mL Ca. The class given is cell-based, mouse. The method, then: Fluo-3 AM kit (Cayman, 14960) was used to measure [Ca2+]int in BMDCs after treatment with AnCHNPs. Briefly, BMDCs were seeded into a 96-well plate at a density of 1×10^4 cells per well and incubated overnight. At different time points (0, 1, 2, 4, 8, and 24 hrs), medium was taken from the well, replenished with prewarmed (37° C.) probe-containing medium (to a final concentration of 5 μM). Cells were incubated for 30 mins under the same growth conditions. Then the loading solution was replaced with fresh medium, removing dye molecules nonspecifically attached to cell surface. Cells were incubated for another 30 mins to allow for complete de-esterification of the acetoxymethyl esters. Fluorescence (ex/em: 485/520 nm) was recorded on a microplate reader (Synergy Mx, BioTeK).

Data set [2] has as its system BMDCs. Briefly: BMDC maturation, flow cytometry for MHC-II and CD205. It counts as cell-based, mouse. The following applies: 5 or 10 μg/mL, 24 h, no cancer cells. The procedure: Maturation BMDCs were seeded onto a 6-well plate at a density of 1×10^6 cells per well one day before the experiment. BMDCs were treated with PBS, CaCl2 solution (5 or 10 μg/mL), and AnCHNPs (5 or 10 μg/mL). After incubation for 24 hrs, supernatant was removed, and BMDCs were harvested by cell lifter. BMDCs were subsequently stained with MHCII-FITC (#107616) and CD205-APC (#138206) and analyzed flow cytometry. Also, BMDCs were treated with SiO2-PEG shell (10 μg/mL), harvested after 24 hrs incubation, stained with MHCII-FITC (#107616), CD80-PerCP-Cy5.5 (#560526), CD86-BV605 (#563055), CD40-PE (#12-0401-83), and OVA-APC (#17-5743-82), and analyzed by flow cytometry.
(In general: In flow cytometry, cells or beads pass a laser one at a time.)

The subject of data set [3] is CFSE-labeled BMDCs. Nature of the data set: Transwell DC migration assay. The class given is cell-based, mouse. The following applies: 5 or 10 μg/mL, 24 h, B16F10-OVA in lower chamber.
Data set [4] has as its system BMDCs/B16F10-OVA (pre-irradiated, 100 Gy) co-cultures. Nature of the data set: DC activation and antigen-presentation in co-culture (flow cytometry, ELISA). The class given is cell-based, mouse. The following applies: comparators.
In data set [5] the test system is EL4 cells. Briefly: Intracellular calcium levels (Fluo-3AM). It counts as cell-based. Particulars: same calcium concentration. The procedure:
Changes in intracellular calcium levels were measured using Fluo-3AM as an indicator.
A general note: Calcium assays in cells follow changes in intracellular calcium, usually with a dye or a luminescent sensor.

Data set [6] relates to B16F10-OVA-tumor-bearing C57BL/6 mice.
The test system of data set [7] is EL4 cells. The following applies: dose as equivalent calcium concentration.
Data set [8] relates to BMDCs. Briefly: Cell uptake of Cy5-labeled nanoparticles by flow cytometry. Particulars: co-incubation with Cy5-labeled AnCHNPs 5 μg/mL. The class given is cell-based, mouse. The method, then:
BMDCs were seeded into 6-well plates at a density of 1×10^6 cells per well and incubated overnight. The cells were then treated with Cy-5 labeled PCHNPs and AnCHNPs (5 μg/mL) for 2 hrs. Furthermore, different endocytosis inhibitors Sodium azide (NaN3, 99.5%, Sigma-Aldrich, Lot #S2002), Dynasore (C18H14N2O4, 98%, Sigma-Aldrich, Lot #324410), Nystatin (Sigma-Aldrich, Lot #N4014), Chlorpromazine (C17H19ClN2S·HCl, 98%, Sigma-Aldrich, Lot #C8138) were used. The Fluorescence of Cy-5 taken up by DCs were measured by flow cytometry.

Data set [9] deals with C57BL/6 mice bearing B16F10-OVA tumors. Nature of the data set: Therapy study, combination with chemotherapy (carboplatin). Particulars: carboplatin alone, 40 mg/kg i.p. The class given is in vivo. The method, then:
Combination with chemotherapy: This was investigated in C57BL/6 mice bearing B16F10-OVA tumors. When tumor sizes reached ~50 mm3, the animals were randomized to receive the following treatments (n=5 for each group): (1) PBS (i.t., 50 μL*2, Day 0 and Day 2); (2) Carboplatin (i.p., 40 mg/kg, 100 μL, Day 0); (3) Carboplatin (i.p., 40 mg/kg, 100 μL, Day 0)+AnCHNPs (i.t., 200 μg/kg*2, 50 μL, Day 0 and Day 2). The tumor size and body weight were inspected daily. The tumor was measured in two dimensions with a caliper and tumor volume was estimated as (length)×(width) 2/2.

Data set [10] deals with EL4 cells. Nature of the data set: Cellular uptake of Cy5-labelled nanoparticles in EL4 cells. It counts as cell-based. Particulars: EL4, co-incubation.

A value given as a limit tells only on which side of the number the result lay.

With `[Ca+2].[Cl-].[Cl-]` [CaCl2, calcium chloride], the “[Ca2+]int change” value in data set [1] is “little [Ca^2+]int increase”. Further, the “CD205 expression in DCs” value in data set [2] was “no impact”. Moreover, in data set [2] (relative to untreated DCs), the “population and expression levels (MFI) of MHC-II+ DCs” value is “no impact”. Further, in [3], the “numbers of DCs migrating to the bottom chamber” value is reported as “minimally affected DC migration”. Besides, in [4], the “impact on DC activation” value is “no positive impact on DC activation”. Also, in [5], the intracellular calcium levels result is “did not increase cellular calcium levels”. Moreover, in data set [6] (6 h co-incubation), the “IFN-γ+ CTL frequency, splenocytes co-incubated with B16F10-OVA cells ex vivo” value is “marginal T cell activation”. Also, the “change of serum cytokine levels (IL-1β, IL-6, TNF-α, IFN-γ, IL-12 elevated, IL-10 decreased)” value in data set [6] (Day 3 and Day 7, relative to PBS control, comparator) is “not”. Moreover, the “frequency of Tregs (CD45+CD3+CD4+Foxp3+) in tumors” value in [6] (RT 10 Gy + 200 μg/kg i.t.) is listed as “minimum impact”. The “tumor-infiltration of cytotoxic T cells (CTLs, CD45+CD3+CD8+)” value in data set [6] (RT 10 Gy + 200 μg/kg i.t., tumor, Day 7) was “minimum impact”. Also, in data set [7], the “Ca2+ concentration at which an effect on cell viability / significant toxicity appears” value is at least 100 µg/mL.
For the compound `[N-]=[N+]=[N-].[Na+]` [azide, Sodium azide], the “effect of endocytosis inhibitor on AnCHNPs uptake by DCs” value in data set [8] is on record as “reduced”.
Turning to `N.N.O=C([O-])C1(C(=O)[O-])CCC1.[Pt+2]` [carboplatin], in data set [9], the average survival is given as 15 days, the “time by which all animals died” value is reported as at most 3 weeks and the tumor growth result is “only marginally retarded tumor growth”.
Take `CN(C)CCCN1c2ccccc2Sc2ccc(Cl)cc21` [chlorpromazine, Chlorpromazine]: the “effect of endocytosis inhibitor on AnCHNPs uptake by DCs” value in data set [8] is “inhibited”.
As to `O=C(N/N=C/c1ccc(O)c(O)c1)c1cc2ccccc2cc1O` [dynasore, Dynasore], in data set [8], the “effect of endocytosis inhibitor on AnCHNPs uptake by DCs” value is given as “inhibited”. For the same compound, the “effect of endocytosis inhibitor on uptake of PMA@CCNP-Ab” value in data set [10] is reported as “decreased”.
On the same counts, the results for `C[C@@H]1[C@H](O)[C@@H](C)/C=C/C=C/CC/C=C/C=C/C=C/C=C/C(O[C@H]2O[C@H](C)[C@@H](O)[C@H](N)[C@@H]2O)CC2O[C@](O)(CC(O)C(O)CCC(O)CC(O)CC(O)CC(=O)O[C@H]1C)CC(O)C2C(=O)O` (some centres unmarked) [nystatin, Nystatin] are “had no effect on the particle uptake” and “did not inhibit cellular uptake”.

The values are drawn from patent publication US20260199254A1, “COMPOSITIONS AND METHODS OF USE THEREOF FOR INCREASING IMMUNE RESPONSES” (priority 2022, published 2026).
